Source: US6328986A, “Method of deterring birds from plant and structural surfaces” (priority 2000, dated 2001)

How the values were obtained:
[1] = LD50 in northern bobwhite quail; details: in vivo, separate study
[2] = system: geese; test: Deterrence of geese from loafing/roosting on grassy turf (Example 1); type: in vivo
Protocol: A formulation containing 50% wt., basis total formulation, of 9,10-anthraquinone dispersed in water with a small amount of surfactant and thickener was prepared and sprayed onto untreated grassy turf in an area where geese normally loaf or roost. One-third acre of turf was treated with areas of untreated turf bordering on both sides of the treated area. The dispersed anthraquinone particles were applied at a rate of 1 pint/acre (approximately 50 mg/m^2) on the treated area. […] The differences in the effects of the treated area versus the untreated area were easily noted. […] The geese were repelled from the treated area for approximately two weeks until the turf was cut. After cutting, another treatment was applied. The dispersed anthraquinone particles were applied at a rate of 1/2 pint/acre (approximately 25 mg/m^2) in the same manner of treating one strip of turf bordered by untreated turf. […] The test was continued for approximately two weeks. The test was concluded due to snow.

[3] = system: crows; test: Deterrence of crows from flat roof (Example 4); type: in vivo; details: 50% by weight aqueous dispersion of 9,10-anthraquinone
Excerpt: (§1) In the following examples, the treating material was an aqueous dispersion of small particles of 9,10-anthraquinone containing 50% by weight of the anthraquinone and a small amount of surfactant.
In Philadelphia Pa., a large number of crows, estimated at over two hundred thousand, regularly roosted on the flat roof of an industrial building.

[4] = system: geese; test: Deterrence of geese from 6.2 acre grassy test site (Example 2); type: in vivo
Protocol: A grassy test site having an area of 6.2 acres was selected within the grounds of a large campus style research complex having a substantial flock of geese in residence, which numbers 250-300 geese during the day and as many as 500 geese in the evening hours. In order to determine when daily observations should be made, the site was observed beforehand to determine the times during which the maximum number of geese were on the test site. Observations were conducted at the same time(s) each day in such manner that the behavior of the geese could be observed without disturbance. In addition, the number of droppings in selected areas of the site were counted each day, recorded and then removed from the test area by raking.
Following 10 days observation of the untreated test site, the above-described goose repellent composition was sprayed on the test area using a calibrated spray tank and a fan-shaped head sprayer. The liquid spray contained one gallon of repellent per 140 gallons of water and the rate of application was 2.77 pounds of AQ per acre of the mixture. In the absence of rain, the applied composition fully dried on the blades of grass within 24 hours.

[5] = system: pigeons; test: Deterrence of pigeons from metal beam of sports arena (Example 6); type: in vivo; details: four ounces of 50% dispersion in 29 gallons of water
Excerpt: as §1
Four ounces of a 50% by weight dispersion of anthraquinone in water were mixed with 29 gallons of water. The mixture was sprayed on a twenty foot section of a metal beam in the superstructure of a large sports arena. The treated beam section was open to the atmosphere and had become a roost for pigeons. Prior to the treatment, a section of walkway beneath the beam was cleaned weekly of 50-60 bird droppings. After more than 30 days following treatment of the beam with the above-described dilute anthraquinone dispersion, the pigeons had not returned to the roosting site.

[6] = system: birds; test: Avian perching deterrent test, all 3 test species (Example 7); type: in vivo, red-winged blackbirds, brown-headed cowbirds, fish crows
Excerpt: (§2) Two (2) pens (10×20×6 feet) constructed of wood and aviary wire in a roofed outdoor aviary with a concrete floor were erected. At one end of each pen a water bowl and a food bowl containing the birds' maintenance diet was provided. On the morning of day 1, the test birds were transferred from their holding cages to each of the test pens. In each pen, there was one centrally located perch. At 0800 on the morning of day 2, this perch was removed and 2 test perches were installed, one in each of the corners at the end of the pen away from the food and water. For red-winged blackbirds (Agelaius phoeniceus) and brown-headed cowbirds (Molothrus ater), the perches were made of aluminum rod, 1.2 m long and 1.0 cm in diameter. For fish crows (Corvus ossigragus), the test perches were hollow stainless steel pipe, 1.2-m long and 2.25 cm in diameter. One of the test perches (randomly determined) was coated with a product containing 50% AQ as the active ingredient (the "repellent"), and the other was uncoated. The repellent was applied to the perches with a paint brush 24-48 hours before the test. The repellent was easily applied and appeared somewhat like thinned paint. It covered the metal surfaces very well, with some streaking, and formed an opaque coating that was dry to the touch by the start of the trial. Approximately 7.5 g wet weight was applied to each crow perch and approximately 3.5 g to each blackbird/cowbird perch.
(§3) Test perches remained in the pens until 1500 on day 3 at which time the birds were captured, banded and released. The activity was videotaped in each pen during 3 30-min periods daily: 0800-0830, 1100-1130, and 1400-1430. The videotapes were reviewed to determine bird use of the perches. The number of birds on each of the test perches were recorded at 1-min intervals. Activity and locations of birds not on the perches was also noted. Five (5) groups of blackbirds and cowbirds and 4 groups of fish crows were tested. For blackbirds and cowbirds, there were 4 birds in each test group. For fish crows, we used 2 birds per pen.
To analyze responses of the birds to the perch treatment, the mean number of birds on each perch during each of the 6 30-min observation periods was used. The data are expressed as birds/min. A separate 2-way repeated measures analysis of variance for each of the 3 bird species was performed to test the null hypothesis of equal use between the two perches.

[7] = system: pigeons; test: Deterrence of pigeons from steel beams of aircraft hangar (Example 5); type: in vivo; details: 50% by weight aqueous dispersion of 9,10-anthraquinone
Excerpt: as §1
Pigeons regularly roosted on the exposed steel beams within a large aircraft hangar in Wilmington Del.

[8] = system: brown-headed cowbirds; test: Avian perching deterrent test, brown-headed cowbirds (Example 7); type: in vivo, Molothrus ater
Excerpt: as §2, with “The repellent was applied to the perches with a paint brush 24-48 hours before the test. The repellent was easily applied and appeared somewhat like thinned paint. It covered the metal surfaces very well, with some streaking, and formed an opaque coating that was dry to the touch by the start of the trial. Approximately 7.5 g wet weight was applied to each crow perch and approximately 3.5 g to each blackbird/cowbird perch.” left out
Test perches remained in the pens until 1500 on day 3 at which time the birds were captured, banded and released. […] The number of birds on each of the test perches were recorded at 1-min intervals. […]
(§4) To analyze responses of the birds to the perch treatment, the mean number of birds on each perch during each of the 6 30-min observation periods was used. The data are expressed as birds/min. […]

[9] = system: birds; test: Pen and field observations of bird behavior and adverse effects; type: in vivo
Excerpt: Pen and field observations of bird behavior were made throughout the studies. In no situation were adverse effects or discomfort to the observed birds. In feeding on rice seeds, the birds squeezed the grain from the hull then ejected the hull from their mouths and ate only the inner grain.

[10] = system: seagulls; test: Deterrence of seagulls from flat roof (Example 3); type: in vivo; details: 50% by weight aqueous dispersion of 9,10-anthraquinone
Excerpt: as §1
A large number of seagulls regularly roosted on the flat roof of an industrial building in Northern California.

[11] = system: fish crows; test: Avian perching deterrent test, fish crows (Example 7); type: in vivo, Corvus ossigragus
Excerpt: as §2
as §3, with “Five (5) groups of blackbirds and cowbirds and 4 groups of fish crows were tested. For blackbirds and cowbirds, there were 4 birds in each test group. For fish crows, we used 2 birds per pen.” left out
as §4

[12] = system: red-winged blackbirds; test: Avian perching deterrent test, red-winged blackbirds (Example 7); type: in vivo, Agelaius phoeniceus
Excerpt: as §2
as §3, with “Five (5) groups of blackbirds and cowbirds and 4 groups of fish crows were tested. For blackbirds and cowbirds, there were 4 birds in each test group. For fish crows, we used 2 birds per pen.” left out
as §4

[13] = treated on day 10, following a heavy rain

SMILES: O=C1c2ccccc2C(=O)c2ccccc21 [9,10-anthraquinone]
- LD50 [1]: > 2000 mg/kg
- repellency ([2]; 1/2 pint/acre (approximately 25 mg/m^2), after cutting, about two weeks): The same repellency was exhibited
- behavior of geese that entered the treated area ([2]; 1 pint/acre (approximately 50 mg/m^2)): immediately ceased eating, exited the treated area, entered a nearby pond and began to wash or rinse themselves
- return of crows [3]: the crows did not return
- goose count, second day after application ([4]; 2.77 pounds of AQ per acre, before treatment average about 150 geese): zero
- goose count, day after application ([4]; 2.77 pounds of AQ per acre, before treatment average about 150 geese (45 to 305)): about 110 geese
- period for which number of geese remained quite low in treated area vs surrounding untreated areas ([4]; following the treatment): more than 3 months
- birds' behavior after treatment of the test area ([4]; in vivo): large numbers of birds were observed milling around, but not entering the treated area
- number of geese, days 12-23 ([4]; treated on day 10): only a few geese were observed from time-to-time
- number of geese, day 11 ([4]; treated on day 10 (over 300 geese), 2.77 pounds of AQ per acre): 109 geese
- number of geese, day 12 ([4]; treated on day 10, 2.77 pounds of AQ per acre): zero
- goose count, day 23 [4, 13]: 27 geese
- number of droppings, day 23 [4, 13]: 13 droppings
- number of geese, day 18 ([4]; treated on day 10, very low quantity of droppings): 18 geese
- time following treatment during which pigeons had not returned to the roosting site [5]: more than 30 days
- preference of test species ([6]; 2-day trials, perch coated with repellent vs untreated): each of the 3 test species displayed a preference for the untreated perch over the one coated with repellent
- signs of illness on videotapes ([6]; e.g. decreased activity, fluffed feathers, vomiting): no sign of illness was observed
- discomfort on the treated perch ([6]; in vivo): no indication that they were uncomfortable or bothered by the feel of the perch was observed
- initial reluctance to use the treated perches ([6]; in vivo): No initial reluctance by birds to use the treated perches was observed
- return of pigeons [7]: the pigeons did not return
- use of the treated perch ([8]; 50% AQ coating, SE=0.14, untreated perch 1.70 (SE=0.23), P=0.015): 0.62 birds/min
- bird use of each perch on the second day ([8]; day x perch interaction P=0.222): bird use of each perch declined on the second day
- irritation of birds exposed on food ([9]; exposed to anthraquinone on food): no sign of irritation
- effect of treated seeds on birds' behavior or pain ([9]; feeding on treated rice seeds): did not affect the birds' behavior or induce pain
- effect of consumption on feeding behavior ([9]; grams of feed per day): did not affect feeding behavior
- death of test birds ([9]; upon completion of all studies): No test birds died
- use of treated roof by gulls [10]: the gulls did not further use the surface for roosting
- use of the treated perch ([11]; 50% AQ coating, SE=0.08, untreated perch 1.28 (SE=0.08), P=0.014): 0.64 birds/min
- use of the untreated perch relative to treated perch ([11]; P=0.014): approximately twice
- use of treated perch from day 1 to day 2 ([11]; day x perch interaction P=0.090): decreased use of the treated perch from day 1 to day 2
- use of the treated perch ([12]; 50% AQ coating, SE=0.06, untreated perch 0.86 (SE=0.10), P=0.067): 0.41 birds/min
- use of the untreated perch relative to treated perch ([12]; P=0.067): more than twice
- use of treated perch from day 1 to day 2 ([12]; day x perch interaction P<0.001): decrease use of the treated perch from day 1 to day 2
